Tests used:
lipoamide = compound: NC(=O)CCCCC1CCSS1 [lipoamide]; assay: thermal stability z-score vs DMSO; higher = more thermally stabilized by treatment; settings: HeLa, lipoamide concentration 100 µM
Procedure: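 Cellular thermal proteome profiling in HeLa cells. Cells were treated with 100 µM lipoamide for 1 h, with or without 1 mM arsenate for a further 1 h, then heated to ten temperatures (37-66.3 °C), and soluble protein was quantified by TMT mass spectrometry relative to 0.1% DMSO controls. The thermal stability score (sum of log2 fold changes minus the abundance score) was transformed to a z-score; mean of n = 3 experiments.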

potassium arsenate = compound: O=[As]([O-])(O)O.[K+] [potassium arsenate]; assay: as above; settings: HeLa; arsenate concentration 1 mM
Procedure: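 Cellular thermal proteome profiling in HeLa cells treated with 1 mM arsenate for 1 h (DMSO pretreatment), heated to ten temperatures (37-66.3 °C). Soluble protein was quantified by TMT mass spectrometry relative to DMSO controls; the thermal stability score was transformed to a z-score; mean of n = 3 experiments.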

[1] = arsenate co-treatment: 1 mM arsenate 1 h
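Further: each temperature applied for 3 min, abundance score taken as mean log2 fold change at the two lowest temperatures, z-score obtained by mean subtraction and division by SD.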

Chain of UniProt Q8IZ21 (Q8IZ21 whole entry): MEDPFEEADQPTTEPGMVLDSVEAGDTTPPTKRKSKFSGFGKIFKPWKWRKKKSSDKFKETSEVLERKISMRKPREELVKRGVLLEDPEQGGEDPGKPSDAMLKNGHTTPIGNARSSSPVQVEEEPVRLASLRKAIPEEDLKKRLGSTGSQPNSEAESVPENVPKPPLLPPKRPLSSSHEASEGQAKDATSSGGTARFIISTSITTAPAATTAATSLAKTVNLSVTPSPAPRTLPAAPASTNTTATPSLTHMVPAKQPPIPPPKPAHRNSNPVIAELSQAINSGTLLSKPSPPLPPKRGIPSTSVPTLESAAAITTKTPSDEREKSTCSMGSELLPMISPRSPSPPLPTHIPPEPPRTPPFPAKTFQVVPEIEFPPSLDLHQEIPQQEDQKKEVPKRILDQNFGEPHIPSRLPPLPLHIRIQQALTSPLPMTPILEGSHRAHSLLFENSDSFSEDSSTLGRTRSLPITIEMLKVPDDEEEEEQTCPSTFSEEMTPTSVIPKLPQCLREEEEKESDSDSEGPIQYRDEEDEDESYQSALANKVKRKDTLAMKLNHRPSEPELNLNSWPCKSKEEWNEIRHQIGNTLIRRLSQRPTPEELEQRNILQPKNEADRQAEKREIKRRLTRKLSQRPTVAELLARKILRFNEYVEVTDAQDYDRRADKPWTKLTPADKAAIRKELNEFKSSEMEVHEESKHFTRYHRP
Chain of UniProt Q16204 (Q16204 whole entry): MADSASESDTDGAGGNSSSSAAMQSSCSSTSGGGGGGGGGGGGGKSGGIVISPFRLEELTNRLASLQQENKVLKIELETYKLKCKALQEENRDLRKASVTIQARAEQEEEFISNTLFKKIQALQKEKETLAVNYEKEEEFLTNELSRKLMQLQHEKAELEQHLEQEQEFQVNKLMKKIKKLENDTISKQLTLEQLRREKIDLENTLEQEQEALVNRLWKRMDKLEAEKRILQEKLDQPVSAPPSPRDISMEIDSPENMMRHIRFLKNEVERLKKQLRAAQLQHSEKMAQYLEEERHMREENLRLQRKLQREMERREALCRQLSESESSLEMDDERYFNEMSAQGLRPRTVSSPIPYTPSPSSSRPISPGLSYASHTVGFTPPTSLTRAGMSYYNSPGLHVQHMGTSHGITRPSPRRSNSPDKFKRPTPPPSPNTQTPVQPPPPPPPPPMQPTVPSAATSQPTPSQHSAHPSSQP
Chain of UniProt Q9NPI6 (Q9NPI6 whole entry): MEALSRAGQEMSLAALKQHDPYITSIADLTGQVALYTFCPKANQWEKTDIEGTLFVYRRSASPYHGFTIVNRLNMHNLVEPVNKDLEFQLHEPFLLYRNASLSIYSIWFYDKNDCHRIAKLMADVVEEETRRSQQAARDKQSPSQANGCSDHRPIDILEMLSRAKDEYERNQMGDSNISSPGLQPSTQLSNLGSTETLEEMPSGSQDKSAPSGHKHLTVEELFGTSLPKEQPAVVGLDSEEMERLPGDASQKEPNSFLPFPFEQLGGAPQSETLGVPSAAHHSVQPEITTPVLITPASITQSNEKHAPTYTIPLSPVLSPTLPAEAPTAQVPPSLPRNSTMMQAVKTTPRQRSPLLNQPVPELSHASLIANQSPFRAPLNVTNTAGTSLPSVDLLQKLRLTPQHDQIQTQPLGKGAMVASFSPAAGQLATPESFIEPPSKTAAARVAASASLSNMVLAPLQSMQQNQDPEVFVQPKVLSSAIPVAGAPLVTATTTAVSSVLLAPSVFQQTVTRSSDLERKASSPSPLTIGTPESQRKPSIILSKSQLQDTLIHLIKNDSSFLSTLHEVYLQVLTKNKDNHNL
Chain of UniProt Q6L8Q7 (Q6L8Q7 whole entry): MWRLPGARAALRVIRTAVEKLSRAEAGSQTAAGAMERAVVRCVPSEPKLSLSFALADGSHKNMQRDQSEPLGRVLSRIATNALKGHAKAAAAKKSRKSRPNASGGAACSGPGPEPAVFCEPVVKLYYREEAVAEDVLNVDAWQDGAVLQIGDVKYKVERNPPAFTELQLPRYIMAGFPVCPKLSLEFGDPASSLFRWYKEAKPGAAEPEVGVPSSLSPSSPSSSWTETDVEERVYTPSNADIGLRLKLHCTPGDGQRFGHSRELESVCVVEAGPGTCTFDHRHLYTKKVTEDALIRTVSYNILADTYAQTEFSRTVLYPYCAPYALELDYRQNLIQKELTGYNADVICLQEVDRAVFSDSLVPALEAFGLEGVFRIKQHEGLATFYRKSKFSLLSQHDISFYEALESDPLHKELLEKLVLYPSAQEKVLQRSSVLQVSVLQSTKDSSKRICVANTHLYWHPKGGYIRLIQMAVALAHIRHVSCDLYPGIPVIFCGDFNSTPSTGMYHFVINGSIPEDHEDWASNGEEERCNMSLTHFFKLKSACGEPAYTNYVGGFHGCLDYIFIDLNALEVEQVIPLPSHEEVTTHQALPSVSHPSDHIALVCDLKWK
Chain of UniProt Q96LL9 (Q96LL9 whole entry): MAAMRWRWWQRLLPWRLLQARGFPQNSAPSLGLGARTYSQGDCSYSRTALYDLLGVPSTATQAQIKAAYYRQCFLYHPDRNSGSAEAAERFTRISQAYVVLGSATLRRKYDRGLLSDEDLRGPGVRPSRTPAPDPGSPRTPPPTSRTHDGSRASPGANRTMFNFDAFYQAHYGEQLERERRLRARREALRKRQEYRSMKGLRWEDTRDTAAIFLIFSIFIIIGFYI
Chain of UniProt Q9H8M5 (Q9H8M5 whole entry): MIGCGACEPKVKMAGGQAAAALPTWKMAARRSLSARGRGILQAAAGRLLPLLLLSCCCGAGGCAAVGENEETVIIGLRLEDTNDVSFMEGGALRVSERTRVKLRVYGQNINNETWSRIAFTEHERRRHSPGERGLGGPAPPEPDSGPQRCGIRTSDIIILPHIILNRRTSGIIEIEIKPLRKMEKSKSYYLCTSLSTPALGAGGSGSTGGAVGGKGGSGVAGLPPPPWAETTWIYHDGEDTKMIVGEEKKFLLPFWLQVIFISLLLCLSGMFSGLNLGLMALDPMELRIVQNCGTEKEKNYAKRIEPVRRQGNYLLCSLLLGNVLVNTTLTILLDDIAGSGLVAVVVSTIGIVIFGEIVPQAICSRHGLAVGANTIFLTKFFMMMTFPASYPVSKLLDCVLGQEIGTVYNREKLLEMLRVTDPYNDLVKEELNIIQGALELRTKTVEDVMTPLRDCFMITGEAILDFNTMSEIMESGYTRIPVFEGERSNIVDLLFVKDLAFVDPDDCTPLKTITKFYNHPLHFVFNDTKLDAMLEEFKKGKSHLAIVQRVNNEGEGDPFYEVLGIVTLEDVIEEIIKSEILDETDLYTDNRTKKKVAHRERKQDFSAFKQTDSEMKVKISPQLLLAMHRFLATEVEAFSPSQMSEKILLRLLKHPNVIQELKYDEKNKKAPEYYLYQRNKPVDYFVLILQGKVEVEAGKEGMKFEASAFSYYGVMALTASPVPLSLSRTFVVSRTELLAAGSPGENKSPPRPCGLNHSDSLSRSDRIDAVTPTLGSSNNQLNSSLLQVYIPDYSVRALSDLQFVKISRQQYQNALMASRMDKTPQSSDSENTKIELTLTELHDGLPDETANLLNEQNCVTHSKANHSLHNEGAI
Chain of UniProt P00390 (P00390 whole entry): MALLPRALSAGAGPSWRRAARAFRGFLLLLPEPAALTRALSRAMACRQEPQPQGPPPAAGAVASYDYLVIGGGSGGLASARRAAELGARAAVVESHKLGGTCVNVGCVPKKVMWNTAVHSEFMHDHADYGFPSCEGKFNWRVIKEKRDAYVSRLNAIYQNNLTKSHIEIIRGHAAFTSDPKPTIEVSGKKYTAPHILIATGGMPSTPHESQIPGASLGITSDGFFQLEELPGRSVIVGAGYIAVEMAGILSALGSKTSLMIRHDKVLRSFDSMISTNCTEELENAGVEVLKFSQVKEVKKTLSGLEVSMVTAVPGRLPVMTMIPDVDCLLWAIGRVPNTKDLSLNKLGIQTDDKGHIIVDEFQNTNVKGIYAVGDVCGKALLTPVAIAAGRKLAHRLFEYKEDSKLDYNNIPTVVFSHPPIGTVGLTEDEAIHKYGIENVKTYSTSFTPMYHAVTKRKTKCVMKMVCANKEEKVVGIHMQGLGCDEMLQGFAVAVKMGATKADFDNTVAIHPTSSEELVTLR
Chain of UniProt Q13356 (Q13356 whole entry): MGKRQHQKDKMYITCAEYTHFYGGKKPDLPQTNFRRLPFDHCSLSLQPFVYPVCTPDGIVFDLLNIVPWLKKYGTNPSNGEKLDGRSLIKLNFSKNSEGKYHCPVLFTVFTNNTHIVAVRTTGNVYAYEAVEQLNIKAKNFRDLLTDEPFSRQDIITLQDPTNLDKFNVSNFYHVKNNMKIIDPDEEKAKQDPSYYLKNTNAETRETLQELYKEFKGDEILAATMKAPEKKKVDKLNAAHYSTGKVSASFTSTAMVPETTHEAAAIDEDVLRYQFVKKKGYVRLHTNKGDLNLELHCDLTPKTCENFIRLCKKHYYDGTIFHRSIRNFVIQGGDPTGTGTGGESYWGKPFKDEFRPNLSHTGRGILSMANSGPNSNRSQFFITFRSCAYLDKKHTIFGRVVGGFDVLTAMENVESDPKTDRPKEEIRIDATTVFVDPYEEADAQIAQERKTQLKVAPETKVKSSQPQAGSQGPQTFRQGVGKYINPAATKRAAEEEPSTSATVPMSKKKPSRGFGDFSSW
Chain of UniProt P61586 (P61586 whole entry): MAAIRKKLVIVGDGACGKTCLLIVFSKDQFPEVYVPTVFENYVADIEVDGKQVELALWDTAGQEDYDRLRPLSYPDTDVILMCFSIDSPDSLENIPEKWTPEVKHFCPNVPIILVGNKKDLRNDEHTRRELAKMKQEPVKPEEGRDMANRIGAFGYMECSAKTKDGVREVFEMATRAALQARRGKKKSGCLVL
Chain of UniProt O00483 (O00483 whole entry): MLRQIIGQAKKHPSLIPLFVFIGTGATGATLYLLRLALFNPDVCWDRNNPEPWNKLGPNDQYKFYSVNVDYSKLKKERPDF
Chain of UniProt O95994 (O95994 whole entry): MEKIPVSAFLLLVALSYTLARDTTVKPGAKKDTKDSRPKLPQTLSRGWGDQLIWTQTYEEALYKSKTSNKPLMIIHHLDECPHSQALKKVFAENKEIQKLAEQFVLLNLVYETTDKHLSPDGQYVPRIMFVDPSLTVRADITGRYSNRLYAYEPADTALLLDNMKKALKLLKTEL

Target	thermal stability z-score (lipoamide; [1])	thermal stability z-score (lipoamide; arsenate co-treatment: none)	thermal stability z-score (potassium arsenate)
DNAJB11 (UniProt Q9UBS4)	-2.65	-2.51	0.319
NUP210 (UniProt Q8TEM1)	-0.954	-1.03	0.685
BTBD1 (UniProt Q9H0C5)	-0.0349	0.00713	0.0567
PHACTR4 (UniProt Q8IZ21)	0.747	0.22	-0.282
SCNM1 (UniProt Q9BWG6)	-0.00102	0.278	0.418
CRELD1 (UniProt Q96HD1)	-0.249	-0.193	-0.113
PSMD2 (UniProt Q13200)	-0.29	-0.343	-0.333
PTMA (UniProt P06454)	1.3	1.23	0.425
NUP107 (UniProt P57740)	-0.163	-0.0082	0.77
DNAJC30 (UniProt Q96LL9)	-0.154	-0.0708	0.0918
PANX1 (UniProt Q96RD7)	0.67	0.0977	0.123
FERMT2 (UniProt Q96AC1)	0.0975	-0.153	0.203
CTSL (UniProt P07711)	-0.924	-0.44	0.977
COMT (UniProt P21964)	0.121	0.102	-0.525
PRDX2 (UniProt P32119)	0.0679	0.162	-0.431
FAAP100 (UniProt Q0VG06)	0.0838	-0.0268	-0.167
SART3 (UniProt Q15020)	-0.326	0.203	-1.04
PKP3 (UniProt Q9Y446)	-0.116	0.603	0.191
PIGN (UniProt O95427)	0.0724	-0.0621	0.41
PRRC2B (UniProt Q5JSZ5)	-0.32	-0.119	-0.412
SRI (UniProt P30626)	1.28	0.78	0.177
CNNM2 (UniProt Q9H8M5)	0.397	0.656	-0.152
ADSL (UniProt P30566)	-0.0252	-0.429	-1.53
USP4 (UniProt Q13107)	-0.209	-0.11	-0.141

Target	thermal stability z-score (lipoamide; [1])	thermal stability z-score (lipoamide; arsenate co-treatment: none)	thermal stability z-score (potassium arsenate)
TCEB3 (UniProt Q14241)	-0.0069	0.00902	0.0043
PDSS2 (UniProt Q86YH6)	0.66	0.484	-0.169
RUSC1 (UniProt Q9BVN2)	0.0753	0.00504	-0.0614
PIGT (UniProt Q969N2)	-3.54	-2.49	-0.105
NDUFAF4 (UniProt Q9P032)	-0.153	0.199	0.182
PUS7L (UniProt Q9H0K6)	0.3	0.174	-0.0157
SMG5 (UniProt Q9UPR3)	-0.0554	0.0814	-0.104
CCDC6 (UniProt Q16204)	-0.497	-0.185	-0.505
CAB39 (UniProt Q9Y376)	0.454	0.641	-0.245
NUDT9 (UniProt Q9BW91)	-0.674	-0.346	0.0652
LAMA1 (UniProt P25391)	-2	-1.82	1.13
BNIP2 (UniProt Q12982)	1.13	0.0699	0.641
IMPACT (UniProt Q9P2X3)	0.0967	-0.0125	0.103
FUBP3 (UniProt Q96I24)	0.25	0.329	0.385
YARS2 (UniProt Q9Y2Z4)	-0.741	-0.156	0.423
NDUFA4 (UniProt O00483)	0.551	0.887	0.532
DCP1A (UniProt Q9NPI6)	-0.2	-0.107	-0.248
RHOA (UniProt P61586)	0.316	0.411	0.103
WDR70 (UniProt Q9NW82)	0.397	0.0128	-0.891
MIS12 (UniProt Q9H081)	-0.0248	-0.061	0.00203
STAU2 (UniProt Q9NUL3)	-0.183	-0.124	-0.323
CHMP2B (UniProt Q9UQN3)	0.562	0.348	0.573
ANKLE2 (UniProt Q86XL3)	-1.08	-0.166	0.76
AGR2 (UniProt O95994)	-2.84	-2.57	-0.355

Target	thermal stability z-score (lipoamide; [1])	thermal stability z-score (lipoamide; arsenate co-treatment: none)	thermal stability z-score (potassium arsenate)
TBC1D22A (UniProt Q8WUA7)	-1.16	-0.15	-1.19
PDE12 (UniProt Q6L8Q7)	0.274	0.272	-0.746
RFC4 (UniProt P35249)	-0.184	-0.331	0.802
USP9X (UniProt Q93008)	-0.133	-0.258	0.115
FAM177A1 (UniProt Q8N128)	-0.313	-0.584	1.04
FNBP1 (UniProt Q96RU3)	0.146	0.0859	0.336
AKAP8L (UniProt Q9ULX6)	0.0418	-0.0231	-0.163
GRHPR (UniProt Q9UBQ7)	-0.261	0.411	1.22
TCF12 (UniProt Q99081)	-0.124	-0.0813	-0.203
UBL7 (UniProt Q96S82)	0.396	0.433	0.168
NUP133 (UniProt Q8WUM0)	-0.312	-0.456	-0.139
NOL3 (UniProt O60936)	0.615	0.549	0.236
LRRC8D (UniProt Q7L1W4)	0.38	-0.0451	-0.198
HSP90AB1 (UniProt P08238)	-0.421	-0.166	0.108
ELOVL5 (UniProt Q9NYP7)	-0.00466	-0.551	0.0723
C2ORF47 (UniProt Q8WWC4)	0.0998	-0.181	1.09
IRF2BP2 (UniProt Q7Z5L9)	0.371	-0.0192	-2.51
GSR (UniProt P00390)	0.558	0.347	-0.106
PPIL2 (UniProt Q13356)	0.057	-0.0266	-0.223
EARS2 (UniProt Q5JPH6)	-1	-0.188	0.0121
CERS2 (UniProt Q96G23)	-0.901	-1.12	-0.575
CHST14 (UniProt Q8NCH0)	-0.943	-0.167	-0.359
RILP (UniProt Q96NA2)	-0.0778	0.284	0.0653
